Reference: patent US20240182445A1 (ONO PHARMACEUTICAL CO., LTD., priority 2019, published 2024)

Target: T1, human TREK-1 (Homo sapiens, UniProt O95069)
T1 construct: expressed in transfected cells
T1 sequence (O95069 1-426): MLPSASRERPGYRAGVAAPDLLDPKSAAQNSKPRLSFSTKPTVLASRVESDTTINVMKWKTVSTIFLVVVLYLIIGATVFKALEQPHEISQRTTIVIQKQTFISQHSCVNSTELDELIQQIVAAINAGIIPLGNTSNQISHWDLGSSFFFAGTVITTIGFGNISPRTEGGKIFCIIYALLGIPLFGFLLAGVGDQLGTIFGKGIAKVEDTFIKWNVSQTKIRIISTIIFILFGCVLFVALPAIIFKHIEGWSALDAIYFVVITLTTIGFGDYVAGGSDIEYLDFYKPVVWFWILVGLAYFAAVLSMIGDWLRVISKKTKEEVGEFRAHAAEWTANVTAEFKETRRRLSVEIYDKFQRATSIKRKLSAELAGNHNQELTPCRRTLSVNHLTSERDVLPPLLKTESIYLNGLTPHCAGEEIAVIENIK
Experiment: TREK-1 Thallium (Tl+) flux assay, Method 1
Assay type: cell-based
Conditions: TREK-1 Thallium (Tl+) flux assay; values without footnote *12 are Method 1
Method: The term “thallium flux assay” herein refers to a fluorescence-based assay used to monitor the activity of TREK channels. Thallium is a congener of potassium that readily fluxes through the pore of TREK channels. Thallium flux is measured using a commercially available, thallium-sensitive fluorescent dye called Thallos. The detail method is described below.
CHO-K1 cells stably expressing human TREK-1 were plated in 384-well plates, cultured overnight, loaded with Thallos dye the following day. Test compounds or control compound (tert-butyl (3-((4-(benzyloxy)-2-methylphenyl)carbamoyl)-4-chlorophenyl)carbamate) or 0.3% DMSO (vehicle control) which were prepared on separate plates were added to the cell plates and incubated for 10 min, and then the cells were treated with thallium stimulus buffer to initiate thallium flux. To measure the efficacy and potency of test compounds, the change in fluorescence intensity (ΔRatio) and % inhibition were calculated using the following equations:
ΔRatio=(fluorescence intensity at 25 seconds after thallium addition)/(average of fluorescent intensity before thallium addition)

SMILES | IC50
CC(=O)N1CC(n2ncc(Cl)c2C(=O)Nc2ncc(C#Cc3ccccc3)cc2F)C1 [Compound 40, 1-(1-acetylazetidin-3-yl)-4-chloro-N-(3-fluoro-5-(phenylethynyl)pyridin-2-yl)-1H-pyrazole-5-carboxamide] | 130 nM
CCC(=O)N1CCC(n2ncc(Cl)c2C(=O)Nc2ncc(C#Cc3ccccc3)cc2C)CC1 [Compound 41, 4-chloro-N-(3-methyl-5-(phenylethynyl)pyridin-2-yl)-1-(1-propionylpiperidin-4-yl)-1H-pyrazole-5-carboxamide] | 130 nM
CC(=O)N1CCC(Cn2ncc(Cl)c2C(=O)Nc2ncc(C#Cc3ccccc3)cc2F)CC1 [Compound 42, 1-((1-acetylpiperidin-4-yl)methyl)-4-chloro-N-(3-fluoro-5-(phenylethynyl)pyridin-2-yl)-1H-pyrazole-5-carboxamide] | 130 nM
O=C(Nc1ncc(C#Cc2ccccc2)cc1F)c1c(Cl)cnn1CC1CCN(C(=O)C2CC2)C1 (stereo not shown) [Compound 43, 4-chloro-1-((1-(cyclopropanecarbonyl)pyrrolidin-3-yl)methyl)-N-(3-fluoro-5-(phenylethynyl)pyridin-2-yl)-1H-pyrazole-5-carboxamide] | 130 nM
CC(=O)N1CCC(Cn2ncc(Cl)c2C(=O)Nc2ncc(C#Cc3ccccc3)cc2F)C1 (stereo not shown) [Compound 44, 1-((1-acetylpyrrolidin-3-yl)methyl)-4-chloro-N-(3-fluoro-5-(phenylethynyl)pyridin-2-yl)-1H-pyrazole-5-carboxamide] | 130 nM
CC(C)C(=O)N[C@H]1CC[C@@H](n2ncc(Cl)c2C(=O)Nc2ncc(C#Cc3ccc(F)cc3)cc2F)CC1 [Compound 45, 4-chloro-N-(3-fluoro-5-((4-fluorophenyl)ethynyl)pyridin-2-yl)-1-(cis-4-isobutyramidocyclohexyl)-1H-pyrazole-5-carboxamide] | 130 nM
Cc1cc(C#Cc2cccs2)cnc1NC(=O)c1c(Cl)cnn1C1CC2(C1)CN(C(=O)C(C)C)C2 [Compound 46, 4-chloro-1-(2-isobutyryl-2-azaspiro[3.3]heptan-6-yl)-N-(3-methyl-5-(thiophen-2-ylethynyl)pyridin-2-yl)-1H-pyrazole-5-carboxamide] | 130 nM
CC(=O)N[C@H]1CC[C@H](n2ncc(Cl)c2C(=O)Nc2ncc(C#Cc3ccccc3)cc2C)CC1 [Compound 47, 1-(trans-4-acetamidocyclohexyl)-4-chloro-N-(3-methyl-5-(phenylethynyl)pyridin-2-yl)-1H-pyrazole-5-carboxamide] | 130 nM
CC(=O)N1CC[C@H](Cn2ncc(Cl)c2C(=O)Nc2ncc(C#Cc3ccccc3)cc2F)[C@H](F)C1 [Compound 48, 1-(((3S,4R)-1-acetyl-3-fluoropiperidin-4-yl)methyl)-4-chloro-N-(3-fluoro-5-(phenylethynyl)pyridin-2-yl)-1H-pyrazole-5-carboxamide] | 130 nM
Cc1cc(C#Cc2ccccc2)cnc1NC(=O)c1c(Cl)cnn1CC1(C#N)CCN(C(=O)C(C)C)CC1 [Compound 49, 4-chloro-1-((4-cyano-1-isobutyrylpiperidin-4-yl)methyl)-N-(3-methyl-5-(phenylethynyl)pyridin-2-yl)-1H-pyrazole-5-carboxamide] | 130 nM
O=C(Nc1ncc(C#Cc2cccc(F)c2)cc1F)c1c(Cl)cnn1CC1CCOCC1 [Compound 50, 4-chloro-N-(3-fluoro-5-((3-fluorophenyl)ethynyl)pyridin-2-yl)-1-((tetrahydro-2H-pyran-4-yl)methyl)-1H-pyrazole-5-carboxamide] | 140 nM
O=C(Nc1ncc(C#Cc2ccccc2)cc1F)c1c(Cl)cnn1C1CCOCC1 [Compound 51, 4-chloro-N-(3-fluoro-5-(phenylethynyl)pyridin-2-yl)-1-(tetrahydro-2H-pyran-4-yl)-1H-pyrazole-5-carboxamide] | 140 nM
Cc1cc(C#Cc2ccccc2)cnc1NC(=O)c1c(Cl)cnn1CC1CCN(C(=O)C2CC2)CC1 [Compound 52, 4-chloro-1-((1-(cyclopropanecarbonyl)piperidin-4-yl)methyl)-N-(3-methyl-5-(phenylethynyl)pyridin-2-yl)-1H-pyrazole-5-carboxamide] | 140 nM
Cc1cc(C#Cc2ccccc2)cnc1NC(=O)c1c(Cl)cnn1CC1CCN(C(=O)C(C)C)CC1 [Compound 53, 4-chloro-1-((1-isobutyrylpiperidin-4-yl)methyl)-N-(3-methyl-5-(phenylethnyl)pyridin-2-yl)-1H-pyrazole-5-carboxamide] | 140 nM
O=C(Nc1ncc(C#Cc2ccccc2)cc1F)c1c(Cl)cnn1C1CCN(C(=O)C(F)(F)F)CC1 [Compound 54, 4-chloro-N-(3-fluoro-5-(phenylethynyl)pyridin-2-yl)-1-(1-(2,2,2-trifluoroacetyl)piperidin-4-yl)-1H-pyrazole-5-carboxamide] | 140 nM
O=C(Nc1ncc(C#Cc2ccccc2)cc1F)c1c(Cl)cnn1C1CCN(C(=O)CC(F)(F)F)CC1 [Compound 55, 4-chloro-N-(3-fluoro-5-(phenylethynyl)pyridin-2-yl)-1-(1-(3,3,3-trifluoropropanoyl)piperidin-4-yl)-1H-pyrazole-5-carboxamide] | 140 nM
O=C(Nc1ncc(C#Cc2ccccc2)cc1F)c1c(Cl)cnn1CCC1CCN(C(=O)C2CC2)CC1 [Compound 56, 4-chloro-1-(2-(1-(cyclopropanecarbonyl)piperidin-4-yl)ethyl)-N-(3-fluoro-5-(phenylethynyl)pyridin-2-yl)-1H-pyrazole-5-carboxamide] | 140 nM

Results, then the molecule that gave them:

IC50 | SMILES
140 nM | Cc1cc(C#Cc2cccs2)cnc1NC(=O)c1c(Cl)cnn1CC1CCN(C(=O)C2CC2)CC1 [Compound 57, 4-chloro-1-((1-(cyclopropanecarbonyl)piperidin-4-yl)methyl)-N-(3-methyl-5-(thiophen-2-ylethynyl)pyridin-2-yl)-1H-pyrazole-5-carboxamide]
140 nM | CC(C)C(=O)N1CC[C@H](Cn2ncc(Cl)c2C(=O)Nc2ncc(C#Cc3ccccc3)cc2F)[C@H](F)C1 [Compound 58, 4-chloro-1-(((3S,4R)-3-fluoro-1-isobutyrylpiperidin-4-yl)methyl)-N-(3-fluoro-5-(phenylethynyl)pyridin-2-yl)-1H-pyrazole-5-carboxamide]
150 nM | N#CCCCn1ncc(Cl)c1C(=O)Nc1ncc(C#Cc2ccccc2)cc1F [Compound 59, 4-chloro-1-(3-cyanopropyl)-N-(3-fluoro-5-(phenylethynyl)pyridin-2-yl)-1H-pyrazole-5-carboxamide]
150 nM | O=C(Nc1ncc(C#Cc2ccccc2)cc1F)c1c(Cl)cnn1C[C@H]1CCOC1 [Compound 60, (R)-4-chloro-N-(3-fluoro-5-(phenylethynyl)pyridin-2-yl)-1-((tetrahydrofuran-3-yl)methyl)-1H-pyrazole-5-carboxamide]
150 nM | CC(=O)N1CCC(n2ncc(Cl)c2C(=O)Nc2ncc(C#Cc3ccccc3)cc2C)CC1C (stereo not shown) [Compound 61, 1-(1-acetyl-2-methylpiperidin-4-yl)-4-chloro-N-(3-methyl-5-(phenylethynyl)pyridin-2-yl)-1H-pyrazole-5-carboxamide]
150 nM | CC(=O)N1CCC(n2ncc(Cl)c2C(=O)Nc2ncc(C#Cc3ccc(F)cc3)cc2C)CC1C (stereo not shown) [Compound 62, 1-(1-acetyl-2-methylpiperidin-4-yl)-4-chloro-N-(5-((4-fluorophenyl)ethynyl)-3-methylpyridin-2-yl)-1H-pyrazole-5-carboxamide]
150 nM | Cc1cc(C#Cc2cccs2)cnc1NC(=O)c1c(Cl)cnn1C1CCN(C(=O)C2CC2)CC1 [Compound 63, 4-chloro-1-(1-(cyclopropanecarbonyl)piperidin-4-yl)-N-(3-methyl-5-(thiophen-2-ylethynyl)pyridin-2-yl)-1H-pyrazole-5-carboxamide]
150 nM | CC(=O)N[C@H]1C[C@@H](n2ncc(Cl)c2C(=O)Nc2ncc(C#Cc3ccccc3)cc2C)C1 [Compound 64, 1-(cis-3-acetamidocyclobutyl)-4-chloro-N-(3-methyl-5-(phenylethynyl)pyridin-2-yl)-1H-pyrazole-5-carboxamide]
150 nM | Cc1cc(C#Cc2ccc(F)cc2)cnc1NC(=O)c1c(Cl)cnn1C1CCN(C(=O)C2COCCO2)CC1 (stereo not shown) [Compound 65, 1-(1-(1,4-dioxane-2-carbonyl)piperidin-4-yl)-4-chloro-N-(5-((4-fluorophenyl)ethynyl)-3-methylpyridin-2-yl)-1H-pyrazole-5-carboxamide]
150 nM | CCC(=O)N1CCC(n2ncc(Cl)c2C(=O)Nc2ncc(C#Cc3ccc(F)cc3)cc2C)CC1 [Compound 66, 4-chloro-N-(5-((4-fluorophenyl)ethynyl)-3-methylpyridin-2-yl)-1-(1-propionylpiperidin-4-yl)-1H-pyrazole-5-carboxamide]
150 nM | CCC(=O)N1CCC(n2ncc(Cl)c2C(=O)Nc2ncc(C#Cc3cccs3)cc2F)CC1 [Compound 67, 4-chloro-N-(3-fluoro-5-(thiophen-2-ylethynyl)pyridin-2-yl)-1-(1-propionylpiperidin-4-yl)-1H-pyrazole-5-carboxamide]
